Measured values reported in paper PMC4342090, “A novel inhibitor of Plasmodium falciparum spermidine synthase: a twist in the tail” (Malaria Journal, 2015).
“Also recorded” adds a separate entry of the source. Where two headings read alike, the source gives them in different places. Peptide text beside a SMILES is read from it.

Key:
PfSpdS [1] = biological target: T1, PfSpdS (Plasmodium falciparum, UniProt Q8II73); conditions: cited from earlier work; for IC50: P. falciparum, read-out: Enzyme inhibition, IC50
T1 sequence (Q8II73 entry or part of it): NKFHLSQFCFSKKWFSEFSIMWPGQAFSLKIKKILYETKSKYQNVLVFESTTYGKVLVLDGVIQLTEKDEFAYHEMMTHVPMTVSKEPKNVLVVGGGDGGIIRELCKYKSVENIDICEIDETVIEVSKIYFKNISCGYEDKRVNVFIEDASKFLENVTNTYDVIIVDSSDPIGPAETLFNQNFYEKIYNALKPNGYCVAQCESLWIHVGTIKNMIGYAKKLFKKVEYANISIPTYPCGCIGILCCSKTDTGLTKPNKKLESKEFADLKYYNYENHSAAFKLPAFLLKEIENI

PfSpdS [2] = biological target: T1, PfSpdS; assay: biochemical; assay type: biochemical; conditions: for inhibition at 100 µM: read-out: % Inhibition (at 100 μM); for fold difference in IC50 between compound 8 and compound 9: PfSpdS; for pseudo-substrate for PfSpdS: unpublished results of the authors
Protocol: A 29 amino acid N-terminus deletion mutant of PfSpdS cloned into pTRCHisB (Invitrogen) was expressed in E. coli BLR (DE3), purified and assayed as described by Haider et al. [18]. […] Stock solutions of the inhibitors were prepared in dddH2O. For the 100 μM assays, 1 μg purified PfSpdS, 50 μM RS-dcAdoMet, 100 nCi [2,3-^3H] putrescine hydrochloride (60 Ci/mmol; American Radiolabelled Chemicals, Inc, Minnesota, USA) and 50 μM unlabelled putrescine dihydrochloride (Sigma) were used. […] All inhibition assays were performed in triplicate.

mammalian SpdS [3] = conditions: cited from earlier work; for IC50: Mammalian, read-out: Enzyme inhibition, IC50
mammalian SpdS [4] = assay: Mammalian spermidine synthase enzyme inhibition; assay type: biochemical
[5] = tested on: mammalian spermine synthase; design: method as in Shirahata et al. [22]; conditions: ref Shirahata et al. [22], cited from earlier work
[6] = biological target: the molecule itself; assay: crystal structure; hanging drop vapour diffusion, 293 K; 25% PEG3350, 0.1 M MES pH 5.6, 0.1 M (NH4)2SO4; protein pre-incubated with 2.5 mM compound 8 and MTA; space group C121, three molecules in the asymmetric unit; interface analysed with PISA
[7] = 100 μM compound, PfSpdS activity inhibited compared to untreated enzyme, mean ± SEM, 100 µM
[8] = ref Lakanen et al. [21], Pegg et al. [38]

Q: With 5′-methylthioadenosine [MTA] as the molecule, how does the IC50 (PfSpdS [1]; ref Haider et al. [18]) read?
A: 159 ± 27 µM

Q: Which results are given for `CN(C[C@H](O)CN)C[C@H](O)CN1CCCCC1` [Compound 6, [(2R)-3-azaniumyl-2-hydroxypropyl]-[(2S)-2-hydroxy-3-piperidin-1-ium-1-ylpropyl]-methylazanium]?
A: % Inhibition (at 100 μM) (PfSpdS [2]; [7]): No Inhibition; % Inhibition (at 100 μM) (PfSpdS [2]; 100 μM compound, PfSpdS activity inhibited compared to untreated enzyme, mean ± SEM, listed as compound 6, 100 µM): neither compound showed reduction in PfSpdS activity

Q: What does the source list for `C=CCCCN` [APE, 5-amino-1-pentene]?
A: IC50 (PfSpdS [1]; ref Haider et al. [18]): 6.5 ± 2.1 µM; IC50 (mammalian SpdS [3]; ref Goda et al. [39]): 1.7 µM

Q: For `CN1CCC(N)CC1` [Compound 2, trans-4-amino-1-methylpiperidine], which inhibition at 100 µM (PfSpdS [2]; 100 μM compound, PfSpdS activity inhibited compared to untreated enzyme, mean ± SEM) is on record?
A: 6.9 ± 5.8%

Q: With `N[C@H]1CC[C@H](N)CC1` [trans-1,4-diaminocyclohexane] as the molecule, how does the “pseudo-substrate for mammalian SpdS” value (mammalian SpdS [3]; ref [22]) read?
A: ~ 12%

Q: With `CC1CCN(CCCN)CC1` [Compound 1, 1-(3-ammoniopropyl)-4-methylpiperidin-1-ium] as the molecule, how does the inhibition at 100 µM (PfSpdS [2]) read?
A: 17 ± 9.4%

Q: With `NCCCC[C@H](NC(=O)[C@@H](N)CCCCN)C(=O)Nc1ccc2ccccc2c1` [Compound 7, [(2S)-6-azaniumyl-1-[[(2S)-6-azaniumyl-1-(naphthalen-2-ylamino)-1-oxohexan-2-yl]amino]-1-oxohexan-2-yl]azanium] as the molecule, how does the “% Inhibition (at 100 μM)” value (PfSpdS [2]; [7]) read?
A: No Inhibition

Q: What about the “% Inhibition (at 100 μM)” value (PfSpdS [2]; 100 μM compound, PfSpdS activity inhibited compared to untreated enzyme, mean ± SEM, listed as compound 7, 100 µM) of the same molecule?
A: showed no inhibition

Q: Which results are given for `C[S+](CCCN)C[C@H]1O[C@@H](n2cnc3c(N)ncnc32)[C@H](O)[C@@H]1O` (stereo partly shown) [dcAdoMet, decarboxylated S-adenosylmethionine]?
A: Km (PfSpdS [1]; P. falciparum enzyme, ref [18],[20],[38], read-out: Km value of the enzyme for dcAdoMet): 35 µM; Km (mammalian SpdS [3]; mammalian enzyme, ref [18],[20],[38], read-out: Km value of the enzyme for dcAdoMet): 7 to 25 µM

Q: Which “% Inhibition (at 100 μM)” value (PfSpdS [2]; [7]) does the source give for `NCCCN1CCN(CCCN)CC1` [Compound 4, 3-[4-(3-azaniumylpropyl)piperazine-1,4-diium-1-yl]propylazanium] here?
A: No Inhibition; also recorded: did not inhibit

Q: Which “% Inhibition (at 100 μM)” value (PfSpdS [2]; [7]) does the source give for `NCCCC[C@H](NC(=O)[C@@H](N)Cc1ccc(O)cc1)C(N)=O` [Compound 3] (H-Tyr-Lys-NH2) here?
A: No Inhibition; also recorded: did not inhibit

Q: What does the source list for `NCCCCCC(CCN)SCC1OC(n2cnc3c(N)ncnc32)C(O)C1O` (stereo not shown) [AdoDATO, S-adenosyl-1,8-diamino-3-thio-octane]?
A: fold lower IC50 for mammalian SpdS compared to the P. falciparum enzyme (mammalian SpdS [4]; ref [18],[20],[38]): 170 fold; fold less efficient inhibitor of mammalian SpdS than adenosylspermidine (mammalian SpdS [4]; ref [21],[38]): 3-7 fold; IC50 (PfSpdS [1]; ref Dufe et al. [20]): 8.5 µM; IC50 (mammalian SpdS [3]; [8]): 0.05 to 0.1 µM

Q: What does the source list for `CN1CCN(CCC(=O)NNC=C2C=CC(=O)C=C2O)CC1` [Compound 5, N’-[(2-hydroxy-4-oxocyclohexa-2,5-dien-1-ylidene)methyl]-3-(4-methylpiperazine-1,4-diium-1-yl)-propanehydrazide]?
A: % Inhibition (at 100 μM) (PfSpdS [2]; [7]): No Inhibition; % Inhibition (at 100 μM) (PfSpdS [2]; 100 μM compound, PfSpdS activity inhibited compared to untreated enzyme, mean ± SEM, listed as compound 5, 100 µM): neither compound showed reduction in PfSpdS activity

Q: For `NCCCN[C@H]1CC[C@H](N)CC1` [Compound 8, N-(3-aminopropyl)-trans-cyclohexane-1,4-diamine], which IC50 (PfSpdS [2]) is on record?
A: 619 ± 144 µM

Q: What about the “fold difference in IC50 between compound 8 and compound 9” value (PfSpdS [2]) of the same molecule?
A: 100 fold

Q: What about the inhibition at 100 µM (PfSpdS [2]) of the same molecule?
A: 12.7 ± 9.1%

Q: And the “pseudo-substrate for PfSpdS” value (PfSpdS [2])?
A: acts as a pseudo-substrate

Q: Which inhibition at 100 µM (PfSpdS [2]) does the source give for `C[C@H]1CC[C@H](N)CC1` [4MCHA, trans-4-methylcyclohexylamine] here?
A: 95.3 ± 0.4%

Q: And the IC50 (PfSpdS [1]; ref Haider et al. [18])?
A: 1.4 ± 0.1 µM

Q: What about the IC50 (mammalian SpdS [3]; [8]) of the same molecule?
A: 1.7 µM

Q: Which IC50 (PfSpdS [2]) does the source give for `NCCCNC1CCCCC1` [Compound 9, N-(3-aminopropyl)-cyclohexylamine] here?
A: 7.4 ± 2.4 µM

Q: What about the Ki (PfSpdS [2]) of the same molecule?
A: 2.8 µM

Q: What about the “fold difference in IC50 between compound 8 and compound 9” value (PfSpdS [2]) of the same molecule?
A: 100 fold

Q: What about the type of inhibition (PfSpdS [2]; between compound and putrescine, preliminary kinetic experiments) of the same molecule?
A: mixed-type competitive inhibition

Q: And the inhibition at 100 µM (PfSpdS [2])?
A: 88.3 ± 1.2%

Q: And the “pseudo-substrate for PfSpdS” value (PfSpdS [2])?
A: no evidence was found

Q: And the “inhibition of mammalian SpdS” value (mammalian SpdS [3]; ref Shirahata et al. [22])?
A: does not inhibit

Q: And the “inhibition of mammalian SpdS” value (mammalian SpdS [3]; ref Shirahata et al. [22], listed as compound 9)?
A: did not inhibit and not

Q: What about the “inhibition of mammalian spermine synthase” value [5] of the same molecule?
A: inhibitor

Q: What about the “inhibition of mammalian spermine synthase” value ([5]; listed as compound 9) of the same molecule?
A: potent inhibitor

Q: With `NC1CCCCC1` [Cyclohexylamine] as the molecule, how does the IC50 (PfSpdS [1]; ref Haider et al. [18]) read?
A: 19.7 ± 3.1 µM

Q: What about the IC50 (mammalian SpdS [3]; ref Shirahata et al. [22]) of the same molecule?
A: 8.1 µM

B1: Plasmodium falciparum spermidine synthase lacking 39 amino acids at the N-terminus (enzyme, UniProt Q8II73 40-321, looked up)
chain: SKKWFSEFSIMWPGQAFSLKIKKILYETKSKYQNVLVFESTTYGKVLVLDGVIQLTEKDEFAYHEMMTHVPMTVSKEPKNVLVVGGGDGGIIRELCKYKSVENIDICEIDETVIEVSKIYFKNISCGYEDKRVNVFIEDASKFLENVTNTYDVIIVDSSDPIGPAETLFNQNFYEKIYNALKPNGYCVAQCESLWIHVGTIKNMIGYAKKLFKKVEYANISIPTYPCGCIGILCCSKTDTGLTKPNKKLESKEFADLKYYNYENHSAAFKLPAFLLKEIENI
notes: Plasmodium falciparum spermidine synthase (EC 2.5.1.16), protein lacking 39 amino acids at the N-terminus, cloned into the p15-TEV-LIC vector, from SGC Toronto; Crystallised with compound 8 and MTA; Three molecules in the asymmetric unit; subunits B and C form the homodimer; also called PfSpdS; 39 amino acid N-terminal truncated PfSpdS protein; source: expression and isolation according to Dufe …
Q: Does B1 bind [6]?
A: binds
